Reference: patent US10570099B2, “Salts of an epidermal growth factor receptor kinase inhibitor” (Celgene CAR LLC, priority 2012, dated 2020)

Tests used:
[1] = Hygroscopicity judged from TGA / water retained after drying; assay type: physicochemical
Description: For thermogravimetric analysis (TGA), approximately 5-10 mg of material was accurately weighed into an open aluminium pan and loaded into a simultaneous thermogravimetric/differential thermal analyser (TG/DTA) and held at room temperature. The sample was then heated at a rate of 10° C./min from 25° C. to 300° C. during which time the change in sample weight was recorded along with any differential thermal events (DTA). Nitrogen was used as the purge gas, at a flow rate of 100 cm^3/min.

[2] = Dynamic vapour sorption (DVS); assay type: physicochemical
Description: For dynamic vapour sorption (DVS), approximately 10-20 mg of sample was placed into a wire mesh vapour sorption balance pan and loaded into a DVS-1 dynamic vapour sorption balance by Surface Measurement Systems. The sample was subjected to a ramping profile from 20-90% relative humidity (RH) at 10% increments, maintaining the sample at each step until a stable weight had been achieved (99.5% step completion). After completion of the sorption cycle, the sample was dried using the same procedure, but all the way down to 0% RH and finally taken back to the starting point of 20% RH. The weight change during the sorption/desorption cycles were plotted, allowing for the hygroscopic nature of the sample to be determined.

[3] = 1 week stability study (XRPD and HPLC); assay type: physicochemical; settings: 1 week, listed as hydrobromide salt
Description: (§1) Resulting solids were analysed by XRPD and HPLC to establish if any changes had occurred.
as §1
The resulting solids were analysed by XRPD and HPLC to establish if any changes had occurred.

[4] = 1 week stability of primary screen salts at 40° C./75% RH and 80° C. (open vials, XRPD); assay type: physicochemical
Description: (open vials). TGA was carried out after the stability studies for samples containing sufficient material.

[5] = Slurry in pH 6.2 aqueous medium (conversion to unknown solid form); assay type: physicochemical; settings: slurry in aqueous pH 6.2 medium, ambient, XRPD
Description: In attempts to characterize this form, as well as establish the rate of conversion to this form while slurrying the material, the following experiments were carried out. Initially, approximately 100 mg of the hydrobromide (1 equiv.) material was slurried in a pH 6.2 aqueous solution at ambient and XRPD analysis was carried out at time points 5 min., 1 hr, 2 hrs, 4 hrs and 8 hrs. Further analysis was then also carried out on the converted material.

[6] = Dog PK Study 1 (cross-over, fasted); assay type: in vivo, beagle dogs; settings: fasted dogs, oral, 24.5-28.5 mg/kg QD
Description: Compound 1 free base and compound 2, as the Form I monohydrobromide (HBr) salt, were evaluated in a cross-over dog PK study. Compound 1 free base capsule consisted of compound 1 free base in Vitamin E TPGS and PEG 400 filled into a capsule. The Form I hydrobromide salt capsule consisted of Form I HBr alone filled into a capsule.
Compound 1 free base capsule and Form I HBr capsule were dosed orally at 28.5 and 24.5 mg/kg (as active) QD, respectively, to three fasted male non-naïve beagle dogs (body weight range: 10.1-10.8 kg) with a 5-day washout period. Approximately 5 mL of tap water was orally administered to encourage swallowing and ensure delivery of capsules into the stomach. Plasma samples were collected at pre-dose and 0.5, 1, 2, 4, 6, 8, 12 and 24 hours post dose. The plasma concentrations of compound 1 were determined by a liquid chromatography-tandem mass spectrometry (LC/MS/MS) method.

[7] = Salt disproportionation study (slurry in deionized water); assay type: physicochemical; settings: deionized water slurry
Description: The pH of the supernatant was also monitored.
The hydrobromide salt was slurried in deionised water at ambient temperature (ca. 22° C.). […] The pH of the supernatant was also monitored.

[8] = Intrinsic dissolution of compressed discs; assay type: physicochemical; settings: early time points
Description: A Sotax AT7 dissolution bath (USP 2, EP 2 apparatus) was used for the dissolution study in which paddles were used to stir the media. All tests were carried out at 37° C. and a paddle speed of 100 rpm.
(§2) Approximately 100-120 mg of each form was compressed into discs by placing the material into a die (diameter: 13 mm) and compressing the die under 5 tons of pressure in a hydraulic press for ca. 2 minutes. A Sotax AT7 (conformed to EP2 and USP2) dissolution instrument was used containing paddles to stir the media at 100 rpm. Dissolution media of pH 3 (1% SDS) and pH 4.5 (1% SDS) were prepared using citrate/phosphate buffer. All materials were tested in 750 ml of the buffer medium. Discs were added at time=0 seconds and allowed to sink to the bottom of the dissolution vessel before stirring began. ca. 1 ml aliquots of media were extracted from the dissolution vessels at times 1, 5, 10, 15, 30, 60, 120, 240 minutes and 24 hours, and tested for dissolved salt concentration by HPLC-UV. The dissolution tests were carried out in duplicate. For both dissolution media, the peak areas for the initial time points (up to 15 minutes), fell below the limit of quantification, however, when plotting Dissolution rate vs. time, the steepest part of the curve occurs during these early time points.
as §2, with “material” for “each form”, “API” for “dissolved salt”

[9] = 40° C./75% RH, closed (crimped) vial

Br.C=CC(=O)Nc1cccc(Nc2nc(Nc3ccc(N4CCN(C(C)=O)CC4)cc3OC)ncc2C(F)(F)F)c1 [Form I hydrobromide salt]
hygroscopicity (TGA, water retained at ambient conditions) [1]: slightly hygroscopic | post DVS XRPD analysis (polymorphic form) ([2]; after DVS cycles, listed as hydrobromide salt): remain consistent | water uptake (DVS) ([2]; between 20 and 70% RH): 0.97% | HPLC purity after storage [3, 9]: 97.2% | XRPD after storage [3, 9]: No polymorphic form changes observed | HPLC purity after storage ([3]; 40° C./75% RH, open vial): 97.2% | XRPD after storage ([3]; 40° C./75% RH, open vial): No polymorphic form changes observed | HPLC purity after storage ([3]; 80° C., open vial): 97.1% | XRPD after storage ([3]; 80° C., open vial): No polymorphic form changes observed | Stability 40° C./75% RH (open conditions) [4]: No form change, slight | Stability 80° C. (open conditions) [4]: No Form change. | time of conversion to the unknown solid form [5]: 2 to 4 h | compound 1 exposure (AUC and Cmax) compared to the free base form [6]: significantly higher | pH of the supernatant ([7]; 1 hr): pH 1 | pH of the supernatant ([7]; 24 hrs): pH 1 | pH of the supernatant ([7]; 48 hrs): pH 1 | intrinsic dissolution value ([8]; pH 3.0 (1% SDS), tablet 1): approximately 0.35 mg/cm^2/min | intrinsic dissolution value ([8]; pH 3.0 (1% SDS), tablet 2): approximately 0.35 mg/cm^2/min | intrinsic dissolution value ([8]; pH 4.5 (1% SDS), tablet 1): approximately 0.27 mg/cm^2/min | intrinsic dissolution value ([8]; pH 4.5 (1% SDS), tablet 2): ~0.28 mg/cm^2/min
